Calls of active or inactive are those of the source. The rule behind the calls is not given here.
Assays:
[1] = biological target: P2X purinoceptor 1 (Rattus norvegicus) (UniProt P47824); test: Affinity at P2X purinoceptor 1 (P2X1) and the value is expressed as IC50
[2] = biological target: P2X purinoceptor 4 (Rattus norvegicus) (UniProt P51577); test: KB value was evaluated at the rat P2X purinoceptor 4 (P2X4); IA menas inactive
P2Y purinoceptor 1 = P2Y purinoceptor 1 (Homo sapiens, UniProt P47900); test: pA2 value was evaluated against P2Y purinoceptor 1; settings: read-out: pA2 (converted)
P2Y purinoceptor 1, sequence (P47900 whole entry): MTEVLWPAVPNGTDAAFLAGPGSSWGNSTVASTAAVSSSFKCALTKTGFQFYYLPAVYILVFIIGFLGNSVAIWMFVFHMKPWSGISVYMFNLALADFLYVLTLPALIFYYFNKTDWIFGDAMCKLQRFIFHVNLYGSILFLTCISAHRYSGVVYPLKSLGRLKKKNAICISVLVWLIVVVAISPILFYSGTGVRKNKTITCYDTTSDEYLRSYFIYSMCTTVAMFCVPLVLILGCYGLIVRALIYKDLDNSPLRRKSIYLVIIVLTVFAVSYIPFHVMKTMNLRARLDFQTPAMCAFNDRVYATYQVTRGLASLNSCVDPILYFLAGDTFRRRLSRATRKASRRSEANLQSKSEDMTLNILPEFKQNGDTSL

[3] = biological target: P2X purinoceptor 2 (Rattus norvegicus) (UniProt P49653); test: KB value was evaluated at the rat P2X purinoceptor 2 (P2X2); IA menas inactive
P2X purinoceptor 2 (Rattus norvegicus), sequence (P49653 whole entry, looked up): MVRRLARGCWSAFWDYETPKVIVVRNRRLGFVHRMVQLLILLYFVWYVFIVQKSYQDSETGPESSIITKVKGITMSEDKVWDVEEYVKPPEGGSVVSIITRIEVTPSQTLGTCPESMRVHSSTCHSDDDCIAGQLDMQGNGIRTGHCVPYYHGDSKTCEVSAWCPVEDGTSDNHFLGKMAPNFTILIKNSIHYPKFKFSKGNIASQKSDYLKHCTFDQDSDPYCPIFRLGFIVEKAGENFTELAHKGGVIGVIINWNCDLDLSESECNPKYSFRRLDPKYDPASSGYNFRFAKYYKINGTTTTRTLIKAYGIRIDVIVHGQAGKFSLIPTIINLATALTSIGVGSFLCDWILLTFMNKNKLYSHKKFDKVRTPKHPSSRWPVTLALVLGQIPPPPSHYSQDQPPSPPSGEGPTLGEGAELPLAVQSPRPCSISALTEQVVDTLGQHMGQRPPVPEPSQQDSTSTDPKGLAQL

Homo sapiens = species on record: Homo sapiens; test: Inhibitory concentration required to inhibit intracellular [Ca2+] rise induced in washed human platelets by 5 uM ADP; assay type: functional

P2X purinoceptor 1 (Rattus norvegicus), sequence (P47824 whole entry, looked up): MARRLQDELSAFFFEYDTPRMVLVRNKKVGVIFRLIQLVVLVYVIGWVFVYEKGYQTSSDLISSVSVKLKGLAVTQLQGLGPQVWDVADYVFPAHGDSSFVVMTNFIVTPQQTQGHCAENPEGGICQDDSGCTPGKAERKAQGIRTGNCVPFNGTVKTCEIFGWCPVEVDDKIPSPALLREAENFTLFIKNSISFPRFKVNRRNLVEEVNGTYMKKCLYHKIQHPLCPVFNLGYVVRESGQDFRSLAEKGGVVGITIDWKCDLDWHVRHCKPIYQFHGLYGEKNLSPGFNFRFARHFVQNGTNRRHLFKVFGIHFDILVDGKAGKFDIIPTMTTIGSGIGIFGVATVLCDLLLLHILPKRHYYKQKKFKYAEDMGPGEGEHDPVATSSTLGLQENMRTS
P2X purinoceptor 4 (Rattus norvegicus), sequence (P51577 whole entry, looked up): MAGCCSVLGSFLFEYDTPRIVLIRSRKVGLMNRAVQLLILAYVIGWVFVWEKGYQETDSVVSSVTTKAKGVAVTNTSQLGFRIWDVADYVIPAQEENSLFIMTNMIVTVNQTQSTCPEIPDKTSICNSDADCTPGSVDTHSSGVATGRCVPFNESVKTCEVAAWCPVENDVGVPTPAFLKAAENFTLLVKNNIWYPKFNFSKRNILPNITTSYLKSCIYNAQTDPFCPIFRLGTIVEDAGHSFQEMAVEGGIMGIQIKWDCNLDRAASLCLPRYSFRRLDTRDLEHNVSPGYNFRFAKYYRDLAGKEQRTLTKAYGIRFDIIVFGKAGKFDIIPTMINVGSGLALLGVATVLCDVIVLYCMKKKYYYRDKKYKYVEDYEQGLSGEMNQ

Row | IC50 [1] | IA [2] | Kb (P2Y purinoceptor 1) | IA [3] | SMILES | Inhibition (Homo sapiens)
1 | 1150 nM | inactive | 282 nM | inactive | CNc1ncnc2c1ncn2[C@H]1C[C@H](OP(=O)(O)O)[C@@H](COP(=O)(O)O)O1 | 
2 |  |  | 77.6 nM |  | CNc1nc(C)nc2c1ncn2[C@H]1C[C@H](OP(=O)(O)O)[C@@H](COP(=O)(O)O)O1 | 100 µM

Source: ChEMBL document CHEMBL1135726, “Novel antagonists acting at the P2Y(1) purinergic receptor: synthesis and conformational analysis using potentiometric and nuclear magnetic resonance titration techniques” (J Med Chem, 2002)
